Reference: patent publication US6339077B1, “Substituted 4-benzylaminoquinolines and their hetero analogs, process for their preparation, pharmaceuticals containing these compounds and use thereof” (Aventis Pharma Deutschland GmbH, priority 1999, dated 2002)
Where a name gives a salt, the structure may show the parent alone.

Assays:
[1] = target: T1, human NHE-3 protein (expressed in the LAP1 cell line) (Homo sapiens, UniProt P48764); assay: Inhibition of sodium/proton exchanger subtype 3: recovery of intracellular pH after acidification (BCECF fluorescence); type: cell-based; settings: pHi recovery as percentage of the maximum recovery, read-out: remaining activity of hNHE3
T1 construct: expressed in transfected cells; host or cells: LAP1 cell line
T1 sequence (P48764 26-834): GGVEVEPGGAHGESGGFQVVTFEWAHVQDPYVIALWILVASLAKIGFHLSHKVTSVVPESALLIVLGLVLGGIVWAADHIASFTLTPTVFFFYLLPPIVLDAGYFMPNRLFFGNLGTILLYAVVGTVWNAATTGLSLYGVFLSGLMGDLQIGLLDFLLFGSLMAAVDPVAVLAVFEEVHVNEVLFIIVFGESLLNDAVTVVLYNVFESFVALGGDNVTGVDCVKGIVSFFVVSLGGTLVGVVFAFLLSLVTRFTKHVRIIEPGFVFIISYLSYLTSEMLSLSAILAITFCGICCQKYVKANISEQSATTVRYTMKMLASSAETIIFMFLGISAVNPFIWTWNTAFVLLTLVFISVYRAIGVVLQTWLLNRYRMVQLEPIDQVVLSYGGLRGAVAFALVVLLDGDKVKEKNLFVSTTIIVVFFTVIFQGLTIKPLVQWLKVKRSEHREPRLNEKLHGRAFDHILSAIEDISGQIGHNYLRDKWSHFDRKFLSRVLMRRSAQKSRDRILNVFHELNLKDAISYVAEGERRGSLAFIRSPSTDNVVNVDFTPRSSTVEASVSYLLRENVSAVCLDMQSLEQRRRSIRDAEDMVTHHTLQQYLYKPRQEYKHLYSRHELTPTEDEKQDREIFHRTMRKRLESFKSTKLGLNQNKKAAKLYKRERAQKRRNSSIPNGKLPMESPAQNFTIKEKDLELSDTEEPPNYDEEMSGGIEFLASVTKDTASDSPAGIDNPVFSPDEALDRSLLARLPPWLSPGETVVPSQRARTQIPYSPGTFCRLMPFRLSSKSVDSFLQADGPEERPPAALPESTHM
Description: Biological testing of the novel compounds was accomplished by measuring inhibition of the sodium/proton exchanger subtype 3.
The remaining activity of the human NHE-3 protein (expressed in the LAP1 cell line) was determined by measuring the recovery in the intracellular pH (pHi) after an acidification, which starts when the NHE is capable of functioning, even under bicarbonate-free conditions. For this purpose, the pHi was determined using the pH-sensitive fluorescent dye BCECF (Calbiochem, the precursor BCECF-AM is employed). The cells were initially loaded with BCECF. […] The intracellular acidification was induced by addition of 975 μl of an NH4Cl-free buffer (see below) to 25 μl aliquots of the cells incubated in NH4Cl buffer. The subsequent rate of pH recovery was recorded for 3 minutes. To calculate the inhibitory power of the substances tested, the cells were initially investigated in buffers in which complete or absolutely no pH recovery took place. […] Test solutions of the substances of interest were made up in the Na^+-containing buffer. Recovery of the intracellular pH at the tested concentration of a substance was expressed as a percentage of the maximum recovery.

melting point | Compound | remaining activity at 30 µM [1]
223 °C (dec.) | COC(=O)c1c(C)nc2ccc(C#CC3(O)CCC4(C)C(CC(O)C5C4CC(O)C4(C)C5CC[C@@H]4C(C)CCC(=O)O)C3)cc2c1NCc1ccccc1 (some centres unmarked) | 
> 185 °C (dec.) | COC(=O)c1c(C)nc2ccc(CCC3(O)CCC4(C)C(CC(O)C5C4CC(O)C4(C)C5CC[C@@H]4C(C)CCC(=O)O)C3)cc2c1NCc1ccccc1 (some centres unmarked) | 
180 °C | Cc1nc2ccccc2c(NCc2ccccc2)c1C(=O)NCCOC1CCC2(C)C(C1)CC(O)C1C2CC(O)C2(C)C1CC[C@@H]2C(C)CCC(=O)NCCS(=O)(=O)O (some centres unmarked) (as salt: trifluoroacetate) | 
143 °C | Cc1nc2ccccc2c(NCc2ccccc2)c1C(=O)NCCOC1CCC2(C)C(C1)CC(O)C1C2CC(O)C2(C)C1CC[C@@H]2C(C)CCC(=O)O (some centres unmarked) | 

Second part, the molecule before the results:

Compound | melting point | remaining activity at 30 µM [1]
CC(=O)c1c(C)nc2ccccc2c1NCc1ccc(C(=O)NCCO[C@H]2CC[C@@]3(C)C(C2)C[C@@H](O)C2C3C[C@H](O)[C@@]3(C)C2CC[C@@H]3[C@H](C)CCC(=O)O)cc1 (stereo partly drawn) [Example 20, 4-[3β-(2-{4-[(3-Acetyl-2-methylquinolin-4-ylamino)methyl]benzoylamino)-ethoxy)-7α,12α-dihydroxy-10β,13β-dimethylhexadecahydrocyclopenta[a]phenanthren-17β-yl]pentanoic acid] | > 145 °C (dec.) | 56%
COC(=O)c1c(C)nc2cccc(C)c2c1NCc1ccc(C#CC2(O)CCC3(C)C(CC(O)C4C3CC(O)C3(C)C4CC[C@@H]3C(C)CCC(=O)O)C2)cc1 (stereo partly drawn) [Example 11, Methyl 2,5-dimethyl-4-{4-[1-(3α,7α,12α-trihydroxy-10β,13β-dimethyl-17β-(3-carboxy-1-methylpropyl)hexadecahydrocyclopenta[a]phenanthren-3-yl)ethyn-2-yl]benzylamino}quinoline-3-carboxylate] | > 155 °C | 61%
CC(=O)c1c(C)nc2ccccc2c1NCc1cccc(C#CC2(O)CC[C@@]3(C)C(CC(O)C4C3CC(O)[C@@]3(C)C4CC[C@@H]3[C@H](C)CCC(=O)O)C2)c1 (stereo partly drawn) [Example 13, 2-Methyl-3-acetyl-4-{3-[1-(3α,7α,12α-trihydroxy-10β,13β-dimethyl-17β-(3-carboxy-1-methylpropyl)hexadecahydrocyclopenta[a]phenanthren-3-yl)ethyn-2-yl]benzylamino}quinoline] | > 195 °C (dec.) | 40%
COC(=O)c1c(C)nc2cccc(C)c2c1NCc1ccc(CCC2(O)CCC3(C)C(CC(O)C4C3CC(O)C3(C)C4CC[C@@H]3C(C)CCC(=O)O)C2)cc1 (some centres unmarked) | > 180 °C (dec.) | 
CCc1nc2ccccc2c(NCc2ccc(CCC3(O)CCC4(C)C(CC(O)C5C4CC(O)C4(C)C5CC[C@@H]4C(C)CCC(=O)O)C3)cc2)c1C(=O)OC (some centres unmarked) | > 190 °C (dec.) | 
CC(=O)c1c(C)nc2ccccc2c1NCc1cccc(CCC2(O)CC[C@@]3(C)C(CC(O)C4C3CC(O)[C@@]3(C)C4CC[C@@H]3[C@H](C)CCC(=O)O)C2)c1 (stereo partly drawn) [Example 14, 2-Methyl-3-acetyl-4-{3-[1-(3α,7α,12α-trihydroxy-10β,13β-dimethyl-17β-(3-carboxy-1-methylpropyl)hexadecahydrocyclopenta[a]phenanthren-3-yl)eth-2-yl]benzylamino}quinoline] | > 170 °C (dec.) | 52%
